This note sets out measurements from publication PMC7504215, “Copper(II) Complexes with Mixed Heterocycle Ligands as Promising Antibacterial and Antitumor Species” (Molecules, 2020).

One data set deals with B16 cells. Briefly: Phalloidin staining and cell imaging (cytoskeleton, nucleus). Format: cell-based, Mouse. The settings on record: 24 h, 6 μg/mL. As to the method:
Cytoskeleton actin filaments of BJ and B16 cells were stained with phalloidin-FITC (Sigma-Aldrich, USA) according to the manufacturer’s protocol. Briefly, cells were washed with PBS (5 min, 3 times), fixed for 5 min with 3% paraformaldehyde, washed three times with PBS, permeabilized with 0.1% Triton X-100 in PBS for 15 min, washed three times with PBS, stained with 20 μg mL^−1 phalloidin-FITC at room temperature for 1 h and washed again three times with PBS. Cell nucleus was stained with 8 μM of Hoechst 33342 solution for 10 min, washed three times with PBS and finally, mounted and sealed on glass slides with FluorSave™ Reagent (Merck Millipore, Germany). The fluorescence images were acquired using an Andor DSD2 Confocal Unit (Andor, Ireland), mounted on an epifluorescence microscope, Olympus BX-51 (Olympus, Germany), equipped with a 40x and 100x objective and an appropriate DAPI/Hoechst filter cube (excitation filter 390/40 m, dichroic mirror 405 nm and emission filter 452/45 nm) and GFP/FITC filter cube (excitation filter 466/40 nm, dichroic mirror 488 nm and emission filter 525/54 nm).

The next data set relates to λ-DNA. Description: UV-Vis absorption titration with DNA. It counts as binding, bacteriophage lambda. The settings on record: 3 μM complex, increasing λ-DNA, Tris/HCl/NaCl buffer pH 8. As for the experimental part: To determine whether compounds have the capacity to interact with DNA, 48,500 base-pairs of genomic DNA from bacteriophage lambda (λ-DNA, Promega. Madison USA) was used. A stock solution of 10 µM λ-DNA (base-pair concentration) was prepared in 10 mM Tris/HCl buffer containing 1 mM NaCl, pH 8.
The UV-Vis absorption titration experiments were done maintaining constant the complex concentration (3 µM) and increasing the concentration of λ-DNA, in Tris-HCl/NaCl buffer solution, at room temperature, until a saturation state was achieved. After DNA addition, the solutions were allowed to equilibrate for 5 min at room temperature. The UV-Vis absorption spectra were recorded with a Jasco V-630 spectrophotometer, using a 10 mm quartz cell. Stock solutions of compounds were prepared in DMSO (1 mM) and diluted to 3 µM in 10 mM Tris/HCl containing 1 mM NaCl, pH 8.

The subject of another data set is E. coli 5 ESBL. Briefly: MIC assay, liquid medium microdilution (planktonic growth). Conditions: E. coli 5 ESBL, 24 h at 37 °C. Format: cell-based, Escherichia coli. As for the experimental part:
(§1) The antibacterial assays were performed on Gram-negative (Escherichia coli ATCC 25922, E. coli 5, Pseudomonas aeruginosa ATCC 27853, P. aeruginosa ATCC 9027) and Gram-positive (Staphylococcus aureus ATCC 25923, S. aureus ATCC 6538, MRSA (Meticillin-resistant S. aureus) 388, ATCC, American Type Culture Collection) bacterial strains. Microbial suspensions (1.5 × 10^8 CFU/mL; colony forming units (CFU)) corresponding to 0.5 McFarland density obtained from 15 to 18-h bacterial cultures developed on solid media were used. The antimicrobial activity was tested on Mueller–Hinton agar medium.
(§2) The quantitative assay of the antimicrobial activity was performed by the liquid medium microdilution method, in 96-well multi-well plates, to establish the minimal inhibitory concentration (MIC). For this purpose, serial two-fold dilutions of the compounds ranging between 1.000 and 1.95 μg/mL were performed in a 200 μL volume of broth and each well was seeded with 50 μL microbial inoculums. Sterility control (wells containing only culture medium) and culture controls (wells containing culture medium seeded with the microbial inoculum) were used. The influence of the DMSO solvent was also quantified in a series of wells containing DMSO, diluted accordingly with the dilution scheme used for the complexes. The plates were incubated for 24 h at 37 °C, and MIC values were considered as the lowest concentration of the tested compound that inhibited the visible growth of the microbial overnight cultures.
On the technique in general: In broth dilution the organism is exposed to a series of concentrations in liquid medium.

A short description of data set [1]: Superoxide scavenging ability by EPR spectroscopy. Conditions: 2.5 μM complex in DMSO, O2− 10, 20 and 30 µM. As to the method:
The superoxide scavenging ability of the complexes was tested using the KO2 compound as a superoxide source combined with EPR spectroscopy. […] The KO2 was dissolved by complexation with dibenzo-18-crown-6-ether.

The subject of data set [2] is human red blood cells (hRBCs). Briefly: Hemolytic activity (adapted ASTM F 756-00). Format: cell-based. The settings on record: 25 µg/mL, 4 h at 37 °C, threshold 5% (ASTM F 756-00). As to the method: The hemolytic activity of the compounds was determined using an adapted protocol of ASTM F 756–00 standard based on hemoglobin release from human red blood cells (hRBCs) resulting after cell lyses. Briefly, the blood samples were collected from healthy volunteers, diluted to a concentration of hemoglobin ~10 mg/mL with phosphate buffer saline (PBS) and then incubated with various concentrations of compounds for 4 h at 37 °C. After 4 h, the cells were centrifuged, the supernatant was collected, transferred into 96-well tissue culture plates and mixed with Drabkin reagent, which converts hemoglobin to cyanmethemoglobin (absorption peak at 540 nm). After 15 min, the absorbance of the samples was read at 570 nm using a plate reader. The obtained data was background corrected and used to calculate the hemolytic index as percentage of the hemoglobin released after the treatment with the tested compounds, relative to control samples. The hRBCs in PBS and distilled water were used as negative and positive controls.

The subject of data set [3] is Saccharomyces cerevisiae (wild-type, WT) laboratory strain BY4741. Briefly: Yeast cell proliferation (toxicity). It counts as cell-based. The settings on record: for Effect on cell proliferation: 0.1–0.2 mM final concentration in liquid YPD, compared to cells grown without compounds; for IC50: S. cerevisiae BY4741 (WT), liquid YPD. As to the method:
The Saccharomyces cerevisiae laboratory strain BY4741 (MATa; his3Δ1; leu2Δ0; met15Δ0; ura3Δ0), considered wild type (WT), and the isogenic strains sod1Δ and sod2Δ lacking the genes SOD1 (encoding Cu/Zn-superoxide dismutase) and SOD2 (encoding Mn-superoxide dismutase) were purchased from EUROSCARF (Frankfurt, Germany). Cells were maintained and manipulated and grown in YPD medium (1% w/v yeast extract, 2% w/v peptone, 2% w/v glucose; 2% w/v agar was added for solid media). Complexes were added to autoclaved media from DMSO sterile stocks (10 mM). To determine the effect of compounds on yeast growth, a fresh overnight pre-culture was 10^3-fold diluted in YPD and incubated (200 rpm, 30 °C) until the culture reached a density of 5 × 10^5 cells/mL. At this point, the compounds were added to the desired concentrations, and cell proliferation was monitored at 660 nm in a 96-well multi-scanner autoreader plate reader equipped with a thermostat and shaker (Varioskan Thermo Fischer Scientific, Vantaa, Finland). The uptake of compounds by yeast cells was determined indirectly by measuring the increase of the total cellular copper content normalized to the total cellular protein determined by Bradford assay. All determinations were done on three biological replicates. The IC50 was calculated by nonlinear regression analysis using the Graphpad Prism software.

The subject of a further data set is P. aeruginosa 27853. Description: MIC assay, liquid medium microdilution (planktonic growth). It counts as cell-based, Pseudomonas aeruginosa. Conditions: P. aeruginosa 27853, 24 h at 37 °C. As for the experimental part: as §1, §2
The test system of a further data set is P. aeruginosa 9027. The description is as above. It counts as cell-based, Pseudomonas aeruginosa. The settings on record: P. aeruginosa 9027 (multi-drug-resistant), 24 h at 37 °C. As for the experimental part: as §1, §2

Regarding `Cc1cc(-c2ccccc2)nc2ncnn12.[Cu+2].[O-][Cl+3]([O-])([O-])[O-].[O-][Cl+3]([O-])([O-])[O-].c1cnc2c(c1)ccc1cccnc12.c1cnc2c(c1)ccc1cccnc12` [(2), [Cu(phen)2(pmtp)](ClO4)2], in the data set on B16 cells, the “Cell morphology (cytoskeleton and nucleus)” value is “affects the cell morphology”. The “Change of UV absorption spectrum on binding to λ-DNA” value in the data set on λ-DNA was “hypochromism observed for the band at 270 nm”. The MIC against E. coli 5 ESBL came to 50 µM; with P. aeruginosa 27853, 90 µM; with P. aeruginosa 9027 it was 90 µM. In addition, in data set [1], the “Superoxide scavenging (EPR signal decrease)” value is given as “trap the superoxide radicals”. Moreover, the Hemolysis in data set [2] worked out at 0.77 ± 0.14%. Further, the “Effect on cell proliferation” value in data set [3] is “did not significantly affect cell proliferation”. Further, in data set [3], the concentration for half-maximal inhibition (IC50) stood at 580 ± 210 µM.

For the compound `Cc1cc(-c2ccccc2)nc2ncnn12.[Cu+2].[O-][Cl+3]([O-])([O-])[O-].[O-][Cl+3]([O-])([O-])[O-].c1ccc(-c2ccccn2)nc1.c1ccc(-c2ccccn2)nc1` [(1), [Cu(bpy)2(pmtp)](ClO4)2], the “Cell morphology (cytoskeleton and nucleus)” value with B16 cells is “does not alter the morphology of the cells”. Further, the “Change of UV absorption spectrum on binding to λ-DNA” value in the data set on λ-DNA is reported as “decrease in the absorption intensity of the band located at 290 nm”. Also, the MIC with E. coli 5 ESBL, against P. aeruginosa 27853 and against P. aeruginosa 9027 was 400 µM in each case. The “Superoxide scavenging (EPR signal decrease)” value in data set [1] is “trap the superoxide radicals”. Besides, the Hemolysis in data set [2] worked out at 0.59 ± 0.18%. Besides, the “Effect on cell proliferation” value in data set [3] was “did not significantly affect cell proliferation”. In data set [3], this compound came in with a half-inhibitory concentration (IC50) of 480 ± 160 µM.

By MIC is commonly meant the least concentration at which growth counts as inhibited. Lower therefore signals a more susceptible organism. As usually defined, the IC50 is the concentration that gives 50% inhibition. Low readings indicate greater potency, high ones weaker potency.
